# Test results published in ChEMBL document CHEMBL5137125, “Echiumin E, an Aryl Dihydronaphthalene Lignan from the Australian Invasive Plant Paterson's Curse (Echium plantagineum)” (J Nat Prod, 2022).
# Key:
# PC-3 = assay: Cytotoxicity against human PC-3 cells assessed as inhibition of cell growth and measured after 72 hrs resazurin reduction assay; assay type: functional, cell-based; conditions: PC-3, 72 h
# SH-SY5Y [1] = assay: Cytotoxicity against human SH-SY5Y cells assessed as inhibition of cell growth and measured after 72 hrs resazurin reduction assay; assay type: functional, cell-based
# [2] = Cytotoxicity against human WPMY-1 cells assessed as inhibition of cell growth and measured after 72 hrs resazurin reduction assay; assay type: toxicity, cell-based; conditions: for IC50 at 72 h: WPMY-1 cells
# SH-SY5Y [3] = assay: Cytotoxicity against human SH-SY5Y cells assessed as inhibition of cell growth and measured upto 72 hrs by clonogenic assay; assay type: functional, cell-based
# HeLa = assay: Cytotoxicity against human HeLa cells assessed as inhibition of cell growth and measured after 72 hrs resazurin reduction assay; assay type: functional, cell-based
Structure (SMILES),IC50 (PC-3) [nM],IC50 (SH-SY5Y [1]) [nM],IC50 at 72 h [2] [nM],"Activity ([2]; wpmy-1, 72 h, time 72 hrs)",IC50 (SH-SY5Y [3]) [nM],IC50 (HeLa) [nM]
O=C(O[C@H](Cc1ccc(O)c(O)c1)C(=O)O)c1cc(-c2ccc(O)c(O)c2)c2cc(O)c(O)cc2c1,> 10000,> 10000,> 10000,,,
O=C(/C=C/c1ccc(O)c(O)c1)O[C@H](Cc1ccc(O)c(O)c1)C(=O)O [ROSMARINIC ACID],> 10000,> 10000,> 10000,,,
COc1cc([C@H]2c3cc(O)c(OC)cc3C=C3C(=O)OC[C@H]4O[C@@](CO)(O[C@H]5O[C@H](COC(=O)/C=C/c6ccc(O[C@@H]7O[C@@H](C)[C@H](O)[C@@H](O)[C@H]7O)cc6)[C@@H](O)[C@H](O)[C@H]5O)[C@@H](OC(=O)[C@@H]32)[C@@H]4O)ccc1O,> 10000,> 10000,,Non-Toxic,,
O=C(OC(Cc1ccc(O)c(O)c1)C(=O)O)C1=Cc2cc(O)c(O)cc2[C@H](c2ccc(O)c(O)c2)[C@H]1C(=O)O[C@@H](Cc1ccc(O)c(O)c1)C(=O)O (some centres undefined),> 10000,> 10000,> 10000,,,
CC(=O)O[C@@]12CO[C@@H]1C[C@H](O)[C@@]1(C)C(=O)[C@H](O)C3=C(C)[C@@H](OC(=O)[C@H](O)[C@@H](NC(=O)OC(C)(C)C)c4ccccc4)C[C@@](O)([C@@H](OC(=O)c4ccccc4)[C@H]21)C3(C)C [DOCETAXEL ANHYDROUS],0.6,,210,,1.8,
COc1cccc2c1C(=O)c1c(O)c3c(c(O)c1C2=O)C[C@@](O)(C(=O)CO)C[C@@H]3O[C@H]1C[C@H](N)[C@H](O)[C@H](C)O1 [DOXORUBICIN],10,40,20,,,1960
